Measured values: ChEMBL document CHEMBL1201862, “PubChem BioAssay data set” (2004)
Activity calls are given as the source filed them.

Assays:
[1] = biological target: T1, Bcl-2-related protein A1 (Mus musculus, UniProt Q07440); test: Bfl-1 binding inhibitors, SAR follow-up, biochemical, fluorescence polarization (AID 1070)
T1 sequence (Q07440 whole entry): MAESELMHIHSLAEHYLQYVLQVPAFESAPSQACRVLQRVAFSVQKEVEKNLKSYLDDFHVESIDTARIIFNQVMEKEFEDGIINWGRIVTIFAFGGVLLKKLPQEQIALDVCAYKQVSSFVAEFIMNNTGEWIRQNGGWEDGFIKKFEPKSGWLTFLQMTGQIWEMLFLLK

[2] = biological target: Glyceraldehyde-3-phosphate dehydrogenase (Homo sapiens, UniProt P04406)
[3] = biological target: T1, Bcl-2-related protein A1; test: Bfl-1 inhibitors blocking BH3 peptide binding, confirmation, biochemical, TR-FRET, mouse Bfl-1 (AID 621);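 also: TR-FRET binding of GST-Bfl-1 to FITC-labelled Bid peptide via terbium antibody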
[4] = biological target: T2, Glutathione-S-transferase (Schistosoma japonicum, UniProt Q26513); test: biotin-GST/anti-GST TR-FRET signal inhibitors, dose response, artefact control for Vif-APOBEC3G degradation inhibitor project, biochemical (AID 1117362); type: functional
T2 sequence (Q26513 whole entry): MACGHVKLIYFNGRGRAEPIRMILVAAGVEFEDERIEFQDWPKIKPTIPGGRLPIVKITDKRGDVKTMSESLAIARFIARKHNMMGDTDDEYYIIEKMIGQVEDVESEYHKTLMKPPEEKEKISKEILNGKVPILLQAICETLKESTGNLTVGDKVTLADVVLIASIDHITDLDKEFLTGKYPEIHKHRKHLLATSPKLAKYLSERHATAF

[5] = biological target: T3, Rac GTPase-activating protein 1 (Homo sapiens, UniProt Q9H0H5); test: MgcRacGAP GTPase-activating activity inhibitors, confirmation, biochemical, ADP Hunter fluorescence, primary and confirmatory (AID 624330); type: functional
T3 sequence (Q9H0H5 whole entry): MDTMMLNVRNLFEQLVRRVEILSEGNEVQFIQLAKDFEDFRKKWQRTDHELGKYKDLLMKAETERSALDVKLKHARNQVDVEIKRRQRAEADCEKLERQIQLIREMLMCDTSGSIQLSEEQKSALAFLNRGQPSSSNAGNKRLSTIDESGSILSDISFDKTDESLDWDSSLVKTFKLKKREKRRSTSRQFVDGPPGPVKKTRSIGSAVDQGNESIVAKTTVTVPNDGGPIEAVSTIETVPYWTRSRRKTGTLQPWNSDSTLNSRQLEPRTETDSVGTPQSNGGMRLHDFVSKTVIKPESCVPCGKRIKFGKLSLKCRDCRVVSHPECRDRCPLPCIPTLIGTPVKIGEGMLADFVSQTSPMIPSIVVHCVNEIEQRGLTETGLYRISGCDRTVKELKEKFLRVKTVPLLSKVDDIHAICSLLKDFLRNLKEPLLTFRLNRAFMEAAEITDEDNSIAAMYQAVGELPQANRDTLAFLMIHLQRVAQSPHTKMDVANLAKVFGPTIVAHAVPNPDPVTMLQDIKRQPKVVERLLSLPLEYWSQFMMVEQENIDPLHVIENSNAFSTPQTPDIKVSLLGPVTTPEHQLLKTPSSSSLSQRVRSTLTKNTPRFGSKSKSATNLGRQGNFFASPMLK

[6] = biological target: NAD-dependent protein deacylase sirtuin-5, mitochondrial (Homo sapiens, UniProt Q9NXA8); test: SIRT5 desuccinylase inhibitors, dose response, biochemical, fluorescence imaging, cherry-pick, set 5 (AID 720591);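 also: desuccinylation of succinyl peptide AMC substrate read as fluorescence after trypsin release; potency of inhibitors that lower fluorescence and may act on trypsin instead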
[7] = ADAM10 inhibitors, peptide cleavage, dose response, biochemical, QFRET (AID 743254);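 also: ADAM10 enzyme with the DM2 quenched FRET peptide as substrate; EDANS fluorescence gain as the protease cuts the substrate; inhibitor potency against ADAM10 proteolytic activity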
[8] = biological target: Disintegrin and metalloproteinase domain-containing protein 17 (Homo sapiens, UniProt P78536); test: ADAM17 protease inhibitors, dose response, counter-screen for ADAM10 exosite inhibitor project, biochemical, quenched FRET substrate (AID 743253)
[9] = biological target: Large T antigen (Simian virus 40, UniProt P03070); type: functional, Betapolyomavirus macacae;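 also: Confirmatory-stage PubChem screen for compounds that inhibit SV40 T antigen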
[10] = biological target: Glucose-6-phosphate 1-dehydrogenase (Homo sapiens, UniProt P11413); test: human G6PD enzyme inhibitors, dose response, selectivity assay for P. falciparum G6PD inhibitor project, biochemical, fluorescence (AID 504792); type: functional
[11] = biological target: T4, Protein RecA (Mycobacterium tuberculosis, UniProt P9WHJ3); test: Fluorescence Cell-Free Homogeneous Dose Retest to Identify Inhibitors of RecA-Intein Splicing Activity. [Related pubchem assays (depositor defined):AID2097, AID2223, AID489010, AID492950]; type: functional
T4 sequence (P9WHJ3 whole entry): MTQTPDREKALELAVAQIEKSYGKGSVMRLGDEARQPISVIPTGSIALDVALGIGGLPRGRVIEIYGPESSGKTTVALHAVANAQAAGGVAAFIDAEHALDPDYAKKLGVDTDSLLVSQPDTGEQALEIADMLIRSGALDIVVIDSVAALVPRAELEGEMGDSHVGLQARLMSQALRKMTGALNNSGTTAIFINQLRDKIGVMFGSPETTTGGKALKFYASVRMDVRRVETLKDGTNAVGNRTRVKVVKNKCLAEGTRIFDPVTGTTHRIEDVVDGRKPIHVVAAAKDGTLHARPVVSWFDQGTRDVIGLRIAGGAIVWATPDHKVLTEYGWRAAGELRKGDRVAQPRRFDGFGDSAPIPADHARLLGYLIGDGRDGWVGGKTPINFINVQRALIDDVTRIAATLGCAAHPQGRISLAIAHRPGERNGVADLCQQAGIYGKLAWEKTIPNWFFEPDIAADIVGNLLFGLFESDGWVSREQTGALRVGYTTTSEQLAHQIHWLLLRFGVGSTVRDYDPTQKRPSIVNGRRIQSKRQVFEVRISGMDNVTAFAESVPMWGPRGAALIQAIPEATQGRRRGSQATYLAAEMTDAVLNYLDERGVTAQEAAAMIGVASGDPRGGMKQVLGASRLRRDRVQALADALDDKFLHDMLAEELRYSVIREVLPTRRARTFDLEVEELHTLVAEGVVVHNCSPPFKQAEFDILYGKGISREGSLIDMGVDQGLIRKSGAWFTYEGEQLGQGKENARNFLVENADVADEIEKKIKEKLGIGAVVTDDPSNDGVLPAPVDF

[12] = system: H4; test: Luminescence Cell-Based Dose Response HTS to Identify Activators of 5'UTR Stem-Loop Driven Prion Protein mRNA Translation in H4 Neuroglioblastoma Cells. [Related pubchem assays: 1829 (Project Summary), 1814 (Primary HTS)]; type: functional; conditions: Homo sapiens
[13] = non-specific cell cytotoxicity, dose response, cytotoxicity control for PAX8 inhibitor project, plate reader, dry powder samples (AID 743021); type: functional, cell-based
[14] = biological target: Paired box protein Pax-8 (Homo sapiens, UniProt Q06710); test: inhibitors of PAX8-driven TPO luciferase reporter, dose response, RMG-I cells, cherry-pick (AID 687027); type: functional, cell-based;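 also: luciferase reporter driven by Pax8 target thyroperoxidase promoter measured by SteadyGlo luminescence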
[15] = Luminescence Cell-Based Dose Response HTS to Identify Activators of Luciferase Translation or Activity in H4 […] Cells. [Related pubchem assays: 1829 (Project Summary), 1814 (Primary HTS)]; type: functional
[16] = biological target: T5, Replicative DNA helicase DnaB (Mycobacterium tuberculosis, UniProt P9WMR3); test: DnaB intein splicing inhibitors, dose response, biochemical, cell-free fluorescence (AID 449749); type: functional
T5 sequence (P9WMR3 whole entry): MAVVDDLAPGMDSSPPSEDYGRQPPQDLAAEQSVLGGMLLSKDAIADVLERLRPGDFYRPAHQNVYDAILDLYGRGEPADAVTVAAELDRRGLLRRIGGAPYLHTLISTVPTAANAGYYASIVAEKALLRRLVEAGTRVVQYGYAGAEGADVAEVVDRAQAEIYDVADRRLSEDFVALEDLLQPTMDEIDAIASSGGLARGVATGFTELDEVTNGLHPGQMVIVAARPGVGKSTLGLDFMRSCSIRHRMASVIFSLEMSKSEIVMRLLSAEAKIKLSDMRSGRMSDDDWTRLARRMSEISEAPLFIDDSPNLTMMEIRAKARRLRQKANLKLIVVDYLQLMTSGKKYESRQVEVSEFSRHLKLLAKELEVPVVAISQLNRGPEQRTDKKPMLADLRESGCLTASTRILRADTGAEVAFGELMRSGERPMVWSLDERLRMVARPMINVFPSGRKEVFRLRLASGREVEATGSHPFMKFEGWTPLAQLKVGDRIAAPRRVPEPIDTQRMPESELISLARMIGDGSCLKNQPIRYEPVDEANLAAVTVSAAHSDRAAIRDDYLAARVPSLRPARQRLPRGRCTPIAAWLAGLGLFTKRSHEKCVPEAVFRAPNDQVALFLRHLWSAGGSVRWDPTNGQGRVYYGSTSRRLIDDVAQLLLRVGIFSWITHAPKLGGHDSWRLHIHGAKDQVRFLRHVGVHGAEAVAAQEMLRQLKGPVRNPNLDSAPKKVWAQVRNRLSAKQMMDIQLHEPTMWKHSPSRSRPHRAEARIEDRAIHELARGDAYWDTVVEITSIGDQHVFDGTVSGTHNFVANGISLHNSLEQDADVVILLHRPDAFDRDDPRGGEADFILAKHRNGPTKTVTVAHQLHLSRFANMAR

[17] = biological target: Mitogen-activated protein kinase 10 (Homo sapiens, UniProt P53779); test: Dose response biochemical screening assay for inhibitors of c-Jun N-Terminal Kinase 3 (JNK3). [Related pubchem assays: 746 ]
[18] = system: H9c2; test: cells; type: functional, cell-based; conditions: Rattus norvegicus, H9c2, Myocardium;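 also: confirmatory concentration-response retest of ultra-high-throughput screening hits for modulation of myocardial damage; cell death induced by hydrogen peroxide oxidative stress; compound pretreatment for 60 min then peroxide exposure for 2 h; potency is for protecting the cells against peroxide damage rather than for killing them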

Sequence of Disintegrin and metalloproteinase domain-containing protein 17 (P78536 whole entry, the tested form may be a part): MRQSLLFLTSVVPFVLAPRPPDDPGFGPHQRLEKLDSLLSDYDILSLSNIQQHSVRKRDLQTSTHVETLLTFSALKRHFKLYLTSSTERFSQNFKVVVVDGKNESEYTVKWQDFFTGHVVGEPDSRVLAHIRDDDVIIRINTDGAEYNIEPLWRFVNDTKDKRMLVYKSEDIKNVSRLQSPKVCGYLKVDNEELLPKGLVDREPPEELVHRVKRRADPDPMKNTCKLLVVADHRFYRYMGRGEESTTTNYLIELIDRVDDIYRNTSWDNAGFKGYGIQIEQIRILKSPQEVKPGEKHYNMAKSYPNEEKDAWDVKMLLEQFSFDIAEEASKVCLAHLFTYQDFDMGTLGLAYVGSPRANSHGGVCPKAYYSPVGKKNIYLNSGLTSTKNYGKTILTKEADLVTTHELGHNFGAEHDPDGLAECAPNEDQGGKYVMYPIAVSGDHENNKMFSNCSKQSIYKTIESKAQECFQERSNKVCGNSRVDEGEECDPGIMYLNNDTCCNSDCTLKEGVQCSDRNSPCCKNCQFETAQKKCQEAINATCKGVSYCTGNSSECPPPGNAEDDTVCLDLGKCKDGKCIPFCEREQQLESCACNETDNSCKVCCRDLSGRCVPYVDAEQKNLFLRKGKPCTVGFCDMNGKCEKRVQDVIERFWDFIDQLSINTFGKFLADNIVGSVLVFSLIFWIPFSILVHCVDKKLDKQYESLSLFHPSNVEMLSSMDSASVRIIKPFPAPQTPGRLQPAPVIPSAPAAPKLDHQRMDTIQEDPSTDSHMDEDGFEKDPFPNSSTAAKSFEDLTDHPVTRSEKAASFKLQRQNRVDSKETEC
Sequence of Mitogen-activated protein kinase 10 (P53779 whole entry): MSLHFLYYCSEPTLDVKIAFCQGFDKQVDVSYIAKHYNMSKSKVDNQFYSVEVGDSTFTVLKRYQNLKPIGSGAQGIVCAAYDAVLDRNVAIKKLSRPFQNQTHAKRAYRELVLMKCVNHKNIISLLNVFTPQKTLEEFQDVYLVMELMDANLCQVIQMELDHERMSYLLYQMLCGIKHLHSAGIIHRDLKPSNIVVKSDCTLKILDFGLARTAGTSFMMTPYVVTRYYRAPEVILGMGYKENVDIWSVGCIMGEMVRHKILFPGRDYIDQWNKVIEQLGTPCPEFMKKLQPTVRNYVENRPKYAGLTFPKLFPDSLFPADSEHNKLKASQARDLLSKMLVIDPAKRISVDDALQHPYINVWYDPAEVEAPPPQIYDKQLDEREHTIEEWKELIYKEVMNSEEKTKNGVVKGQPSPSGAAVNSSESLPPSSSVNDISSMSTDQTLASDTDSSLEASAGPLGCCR
Sequence of Glyceraldehyde-3-phosphate dehydrogenase (P04406 whole entry): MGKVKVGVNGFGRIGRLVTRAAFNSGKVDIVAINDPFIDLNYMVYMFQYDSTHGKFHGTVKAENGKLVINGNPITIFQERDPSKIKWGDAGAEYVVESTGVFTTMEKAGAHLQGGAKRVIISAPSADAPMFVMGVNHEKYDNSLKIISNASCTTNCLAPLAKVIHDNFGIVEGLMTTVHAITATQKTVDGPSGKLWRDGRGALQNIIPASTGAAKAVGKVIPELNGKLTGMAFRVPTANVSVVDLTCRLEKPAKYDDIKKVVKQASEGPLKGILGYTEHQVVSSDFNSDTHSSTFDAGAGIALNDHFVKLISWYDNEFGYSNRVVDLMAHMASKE
Sequence of Paired box protein Pax-8 (Q06710 whole entry): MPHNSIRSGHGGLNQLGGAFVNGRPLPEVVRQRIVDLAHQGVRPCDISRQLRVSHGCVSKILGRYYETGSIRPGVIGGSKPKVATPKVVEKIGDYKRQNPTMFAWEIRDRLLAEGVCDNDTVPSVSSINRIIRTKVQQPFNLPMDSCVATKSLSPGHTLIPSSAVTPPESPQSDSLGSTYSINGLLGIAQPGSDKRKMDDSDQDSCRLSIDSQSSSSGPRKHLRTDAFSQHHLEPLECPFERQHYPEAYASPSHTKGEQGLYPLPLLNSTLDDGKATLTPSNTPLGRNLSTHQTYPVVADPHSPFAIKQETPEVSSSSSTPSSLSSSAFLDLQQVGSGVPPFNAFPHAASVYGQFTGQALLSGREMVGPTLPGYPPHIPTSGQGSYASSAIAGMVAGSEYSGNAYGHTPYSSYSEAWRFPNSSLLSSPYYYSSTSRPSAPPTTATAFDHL
Sequence of Glucose-6-phosphate 1-dehydrogenase (P11413 whole entry): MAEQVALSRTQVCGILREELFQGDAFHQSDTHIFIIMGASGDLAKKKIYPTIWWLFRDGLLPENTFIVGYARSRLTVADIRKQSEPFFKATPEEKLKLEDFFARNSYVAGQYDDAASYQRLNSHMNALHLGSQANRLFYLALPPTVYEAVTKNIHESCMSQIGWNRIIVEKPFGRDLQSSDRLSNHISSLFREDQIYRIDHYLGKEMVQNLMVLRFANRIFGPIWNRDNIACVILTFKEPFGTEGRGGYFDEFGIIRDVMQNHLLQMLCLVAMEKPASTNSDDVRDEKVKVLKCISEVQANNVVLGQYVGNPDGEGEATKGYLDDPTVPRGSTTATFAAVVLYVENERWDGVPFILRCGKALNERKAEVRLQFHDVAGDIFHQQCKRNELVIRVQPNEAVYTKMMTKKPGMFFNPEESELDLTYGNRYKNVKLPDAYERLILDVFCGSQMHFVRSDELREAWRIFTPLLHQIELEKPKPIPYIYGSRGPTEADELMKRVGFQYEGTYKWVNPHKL
Sequence of Large T antigen (P03070 whole entry): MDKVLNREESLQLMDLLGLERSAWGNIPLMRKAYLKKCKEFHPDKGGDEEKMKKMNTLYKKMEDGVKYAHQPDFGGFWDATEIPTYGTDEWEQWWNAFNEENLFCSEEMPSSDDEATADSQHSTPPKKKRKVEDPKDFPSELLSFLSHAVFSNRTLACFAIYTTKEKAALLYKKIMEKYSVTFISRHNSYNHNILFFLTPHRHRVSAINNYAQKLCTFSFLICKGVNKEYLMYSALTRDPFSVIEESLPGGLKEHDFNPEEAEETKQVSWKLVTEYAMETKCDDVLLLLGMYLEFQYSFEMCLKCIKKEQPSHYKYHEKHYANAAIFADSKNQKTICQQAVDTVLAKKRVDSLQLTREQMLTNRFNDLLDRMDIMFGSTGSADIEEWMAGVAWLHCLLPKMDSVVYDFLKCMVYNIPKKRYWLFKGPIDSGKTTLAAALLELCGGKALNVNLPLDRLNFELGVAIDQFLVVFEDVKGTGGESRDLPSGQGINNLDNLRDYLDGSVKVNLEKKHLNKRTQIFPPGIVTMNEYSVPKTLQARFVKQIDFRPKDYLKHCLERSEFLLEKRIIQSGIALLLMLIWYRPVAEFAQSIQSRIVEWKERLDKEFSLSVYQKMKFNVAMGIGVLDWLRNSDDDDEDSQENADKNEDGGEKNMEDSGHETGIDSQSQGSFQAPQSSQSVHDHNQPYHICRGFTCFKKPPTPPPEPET
Sequence of NAD-dependent protein deacylase sirtuin-5, mitochondrial (Q9NXA8 whole entry): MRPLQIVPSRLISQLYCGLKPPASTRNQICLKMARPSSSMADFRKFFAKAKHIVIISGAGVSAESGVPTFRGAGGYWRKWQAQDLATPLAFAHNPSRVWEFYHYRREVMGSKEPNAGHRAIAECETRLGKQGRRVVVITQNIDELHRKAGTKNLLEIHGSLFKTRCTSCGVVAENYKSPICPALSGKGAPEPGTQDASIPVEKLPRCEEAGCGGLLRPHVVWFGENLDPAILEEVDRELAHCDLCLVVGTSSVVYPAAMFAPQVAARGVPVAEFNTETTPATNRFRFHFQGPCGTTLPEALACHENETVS

Question: With `CN(C)C1=C(Cl)C(=O)N(c2cccc([N+](=O)[O-])c2)C1=O` as the compound, how does the IC50 [1] read?
Answer: 2.3 µM (active)

Question: What about the IC50 [2] of the same compound?
Answer: > 100 µM (not active)

Question: What about the IC50 [3] of the same compound?
Answer: > 100 µM (not active)

Question: For `CC1Cc2ccccc2N1Cc1cc(=O)n2ccsc2n1` (configuration not stated), which IC50 [4] is on record?
Answer: > 100 µM (active)

Question: With `CC(=O)N1CCN(c2ccc(NCc3ccc4c(c3)OCO4)cc2)CC1` as the compound, how does the IC50 [4] read?
Answer: 16.3 µM (active)

Question: What about the IC50 [5] of the same compound?
Answer: 12.9 µM (active)

Question: Which AC50 [6] does the source give for `CCC(C)N1C(=O)N(C)C2NC(=O)NC21` (configuration not stated) here?
Answer: 2.23 µM (active)

Question: Which IC50 [7] does the source give for `COC(=O)C1=C(c2ccccc2OCc2ccccc2)C[C@@H]2CC[C@H]1N2C(=O)NCc1ccc(C(C)(C)C)cc1` here?
Answer: > 69.5 µM (inactive)

Question: And the IC50 [8]?
Answer: > 69.5 µM (inactive)

Question: With `COCCn1nnnc1C(c1cc2cc(OC)c(OC)cc2[nH]c1=O)N1CCN(c2ccc(O)cc2)CC1` (configuration not stated) as the compound, how does the IC50 [9] read?
Answer: 6.67 µM (active)

Question: What about the IC50 [10] of the same compound?
Answer: > 80 µM (inactive)

Question: What about the IC50 [4] of the same compound?
Answer: > 100 µM (active)

Question: Which EC50 [11] does the source give for `Cc1ccc(-n2nc(C)c(NC(=O)CCl)c2C)cc1C` here?
Answer: 16 µM (active)

Question: What about the EC50 [12] of the same compound?
Answer: > 120 µM (not active)

Question: What about the AC50 [13] of the same compound?
Answer: 39.5 µM (active)

Question: What about the AC50 [14] of the same compound?
Answer: 6.77 µM (active)

Question: And the EC50 [15]?
Answer: 115 µM (active)

Question: What about the AC50 [16] of the same compound?
Answer: > 380 µM (inactive)

Question: Which IC50 [17] does the source give for `O=c1c2ccccc2nc(-c2ccco2)n1CCCn1ccnc1` here?
Answer: > 31 µM (not active)

Question: Which results are given for `O=C(NO)c1ccc(C(=O)N(C2CCCCC2)C2CCCCC2)cc1`?
Answer: IC50 [7]: 14.6 µM (inactive); IC50 [8]: 34.9 µM (inactive); IC50 [18]: > 79 µM (inactive)
